Measurements from US20060063759A1, “Tricyclic steroid hormone nuclear receptor modulators” (priority 2002, published 2006).

Target: T1, human MR (Homo sapiens, UniProt P08235)
T1 construct: The full length human MR gene is cloned from a human kidney or human brain cDNA library; His tag from the pAcHLT vector (own knowledge); made in house; host or cells: Sf9 insect cells (baculovirus, pAcHLT transfer vector)
T1 sequence (P08235 1-984): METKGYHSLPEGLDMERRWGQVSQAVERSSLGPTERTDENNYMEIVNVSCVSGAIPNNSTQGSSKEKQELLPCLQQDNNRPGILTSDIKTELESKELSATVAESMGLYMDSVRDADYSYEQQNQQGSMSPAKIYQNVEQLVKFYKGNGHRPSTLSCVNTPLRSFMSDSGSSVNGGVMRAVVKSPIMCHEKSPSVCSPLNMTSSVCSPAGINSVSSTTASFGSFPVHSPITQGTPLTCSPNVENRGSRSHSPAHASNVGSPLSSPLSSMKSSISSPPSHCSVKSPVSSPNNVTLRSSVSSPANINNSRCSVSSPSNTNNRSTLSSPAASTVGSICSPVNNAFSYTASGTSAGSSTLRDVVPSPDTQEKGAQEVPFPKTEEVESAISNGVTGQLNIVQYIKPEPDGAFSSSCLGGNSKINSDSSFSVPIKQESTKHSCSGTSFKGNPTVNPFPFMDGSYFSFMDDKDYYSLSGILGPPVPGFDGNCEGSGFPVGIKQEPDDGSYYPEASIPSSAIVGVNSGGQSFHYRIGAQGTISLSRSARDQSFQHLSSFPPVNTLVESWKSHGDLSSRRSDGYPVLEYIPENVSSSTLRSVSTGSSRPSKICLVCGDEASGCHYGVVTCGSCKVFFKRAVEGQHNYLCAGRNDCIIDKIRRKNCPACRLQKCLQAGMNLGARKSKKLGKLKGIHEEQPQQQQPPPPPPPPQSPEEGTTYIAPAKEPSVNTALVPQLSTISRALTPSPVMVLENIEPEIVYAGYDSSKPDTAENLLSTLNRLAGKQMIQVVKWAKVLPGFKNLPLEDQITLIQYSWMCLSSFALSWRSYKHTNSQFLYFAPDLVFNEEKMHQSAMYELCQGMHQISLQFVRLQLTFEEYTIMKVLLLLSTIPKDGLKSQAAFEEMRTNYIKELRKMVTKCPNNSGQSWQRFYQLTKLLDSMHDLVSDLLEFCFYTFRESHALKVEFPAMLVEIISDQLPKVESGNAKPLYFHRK
Assay: Mineralocorticoid Receptor Binding Assay ([3H]-aldosterone)
Details: [3H]-aldosterone binding, human MR expressed in Sf9 cells; read-out: MR Ki
Procedure, shortened: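 Receptor source: freeze-thaw lysate of baculovirus-infected Sf9 cells carrying full-length human MR, 20-25 μg protein. Incubation ~16 h at 4 °C with shaking, pH 7.5 buffer containing 30 mM sodium molybdate and 10% glycerol.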

Structure (SMILES) | Ki
COc1ccc2c(c1)CSc1ccccc1/C2=C(\C)c1cccc(NS(C)(=O)=O)c1 [Example 842] | < 500 nM

Target: T2, glucocorticoid receptor (Homo sapiens, UniProt P04150)
T2 construct: containing 50-200 ug of A549 cell extract and 1.86 nM [^3H]-dexamethasone; host or cells: A549 human lung epithelial cells (sonicated cell extract)
T2 sequence (P04150 1-777): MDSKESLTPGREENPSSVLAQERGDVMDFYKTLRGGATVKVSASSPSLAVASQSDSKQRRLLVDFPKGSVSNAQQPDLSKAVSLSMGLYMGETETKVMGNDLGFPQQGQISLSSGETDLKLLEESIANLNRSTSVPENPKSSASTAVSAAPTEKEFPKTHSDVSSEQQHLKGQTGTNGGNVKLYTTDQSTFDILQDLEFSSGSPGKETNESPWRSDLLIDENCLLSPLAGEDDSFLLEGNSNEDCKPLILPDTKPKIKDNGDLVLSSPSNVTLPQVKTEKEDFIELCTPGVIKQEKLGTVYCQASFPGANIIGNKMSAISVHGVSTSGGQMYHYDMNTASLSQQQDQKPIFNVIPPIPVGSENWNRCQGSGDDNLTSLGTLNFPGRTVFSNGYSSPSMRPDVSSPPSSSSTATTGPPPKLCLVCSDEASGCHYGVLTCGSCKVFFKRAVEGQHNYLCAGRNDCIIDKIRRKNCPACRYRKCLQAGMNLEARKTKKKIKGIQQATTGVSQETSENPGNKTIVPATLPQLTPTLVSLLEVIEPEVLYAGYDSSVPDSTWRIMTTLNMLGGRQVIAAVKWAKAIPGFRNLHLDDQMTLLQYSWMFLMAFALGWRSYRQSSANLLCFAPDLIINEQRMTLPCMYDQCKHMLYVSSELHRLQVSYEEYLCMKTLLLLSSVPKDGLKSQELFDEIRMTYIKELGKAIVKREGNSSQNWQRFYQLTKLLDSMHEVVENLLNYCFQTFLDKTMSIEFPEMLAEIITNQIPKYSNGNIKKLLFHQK
Assay: Glucocorticoid Receptor Binding Assay ([3H]-dexamethasone, A549 cell extract)
Details: [3H]-dexamethasone binding, read-out: GR Ki
Procedure, shortened: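 Displacement of [3H]-dexamethasone (1.86 nM) from glucocorticoid receptor in sonicated A549 lung epithelial cell extracts, 16 h at 4 °C, pH 7.2 molybdate-containing buffer. Bound radioactivity was scintillation-counted after charcoal/dextran stripping of free ligand.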

Structure (SMILES) | Ki
COc1ccc2c(c1)CSc1ccccc1/C2=C(\C)c1cccc(NS(C)(=O)=O)c1 [Example 842] | < 500 nM

Test system: not given
Assay: not given
Details: not given

melting point | Structure (SMILES)
140.7 °C | COc1ccc(C=C2c3ccccc3CCc3ccccc32)cc1Br [Example 34, 5-(3-Bromo-4-methoxy-benzylidene)-10,11-dihydro-5H-dibenzo[a,d]cycloheptene]
102.8 °C | COc1ccc(C=C2c3ccccc3CCc3ccccc32)cc1OC [Example 36, 5-(3,4-Dimethoxy-benzylidene)-10,11-dihydro-5H-dibenzo[a,d]cycloheptene]
158.8 °C | Nc1cc(C=C2c3ccccc3CCc3ccccc32)ccc1O [Example 63, 2-Amino-4-(10,11-dihydro-dibenzo[a,d]cyclohepten-5-ylidenemethyl)-phenol]
81.1 °C | FC(F)Oc1ccccc1C=C1c2ccccc2CCc2ccccc21 [Example 66, 5-(2-Difluoromethoxy-benzylidene)-10,11-dihydro-5H-dibenzo[a,d]cycloheptene]
65.8 °C | FC(F)Oc1ccc(C=C2c3ccccc3CCc3ccccc32)cc1 [Example 67, 5-(4-Difluoromethoxy-benzylidene)-10,11-dihydro-5H-dibenzo[a,d]cycloheptene]
62.7 °C | COc1ccc(C=C2c3ccccc3CCc3ccccc32)cc1N [Example 89, 5-(10,11-Dihydro-dibenzo[a,d]cyclohepten-5-ylidenemethyl)-2-methoxy-phenylamine]
192.1 °C | COc1ccc(C=C2c3ccccc3CCc3ccccc32)cc1NS(C)(=O)=O [Example 97, N-[5-(10,11-Dihydro-dibenzo[a,d]cyclohepten-5-ylidenemethyl)-2-methoxy-phenyl]-methanesulfonamide]
189.7 °C | CC(=O)Nc1ccccc1C=C1c2ccccc2CCc2ccccc21 [Example 115, N-[2-(10,11-Dihydro-dibenzo[a,d]cyclohepten-5-ylidenemethyl)-phenyl]-acetamide]
124.2 °C | CN(c1cccc(C=C2c3ccccc3CCc3ccccc32)c1)S(C)(=O)=O [Example 124, N-[3-(10,11-Dihydro-dibenzo[a,d]cyclohepten-5-ylidenemethyl)-phenyl]-N-methyl-methanesulfonamide]
184.6 °C | Cc1nc2c(o1)CCc1ccccc1/C2=C/c1cccc(NS(C)(=O)=O)c1 [Example 247, N-[3-(2-Methyl-9,10-dihydro-1-oxa-3-aza-benzo[f]azulen-4-ylidenemethyl)-phenyl]-methanesulfonamide]

Further lines, the compound ahead of its results:

Structure (SMILES) | melting point
O=S(=O)(c1ccccc1C=C1c2ccccc2CCc2ccccc21)N1CCOCC1 [Example 8, 4-[2-(10,11-Dihydro-dibenzo[a,d]cyclohepten-5-ylidenemethyl)-benzenesulfonyl]-morpholine] | 139.3 °C
Cc1cc(S(=O)(=O)N(C)C)c(C=C2c3ccccc3CCc3ccccc32)cc1Cl [Example 10, 4-Chloro-2-(10,11-dihydro-dibenzo[a,d]cyclohepten-5-ylidenemethyl)-5,N,N-trimethylbenzenesulfonamide] | 199.9 °C
Cc1cc(S(=O)(=O)N2CCOCC2)c(C=C2c3ccccc3CCc3ccccc32)cc1Cl [Example 12, 4-[4-Chloro-2-(10,11-dihydro-dibenzo[a,d]cyclohepten-5-ylidenemethyl)-5-methyl-benzenesulfonyl]-morpholine] | 194.7 °C
Cc1ccc(C=C2c3ccccc3CCc3ccccc32)c(S(=O)(=O)Nc2ccccc2)c1 [Example 13] | 220.4 °C
Cc1ccc(C=C2c3ccccc3CCc3ccccc32)c(S(=O)(=O)NC2CC2)c1 [Example 14, N-Cyclopropyl-2-(10,11-dihydro-dibenzo[a,d]cyclohepten-5-ylidenemethyl)-5-methyl-benzenesulfonamide] | 160.8 °C
Cc1ccc(C=C2c3ccccc3CCc3ccccc32)c(S(=O)(=O)NCc2ccccc2)c1 [Example 15, N-Benzyl-2-(10,11-dihydro-dibenzo[a,d]cyclohepten-5-ylidenemethyl)-5-methyl-benzenesulfonamide] | 138.3 °C
CCNS(=O)(=O)c1cc(C)ccc1C=C1c2ccccc2CCc2ccccc21 [Example 17, 2-(10,11-Dihydro-dibenzo[a,d]cyclohepten-5-ylidenemethyl)-N-ethyl-5-methyl-benzenesulfonamide] | 172.4 °C
Cc1ccc(C=C2c3ccccc3CCc3ccccc32)c(S(=O)(=O)N(C)C)c1 [Example 19, 2-(10,11-Dihydro-dibenzo[a,d]cyclohepten-5-ylidenemethyl)-5,N,N-trimethyl-benzenesulfonamide] | 186.6 °C
CCCNS(=O)(=O)c1cc(C)ccc1C=C1c2ccccc2CCc2ccccc21 [Example 20, 2-(10,11-Dihydro-dibenzo[a,d]cyclohepten-5-ylidenemethyl)-5-methyl-N-propyl-benzenesulfonamide] | 149.8 °C
Cc1ccc(C=C2c3ccccc3CCc3ccccc32)c(S(=O)(=O)N2CCOCC2)c1 [Example 22, 4-[2-(10,11-Dihydro-dibenzo[a,d]cyclohepten-5-ylidenemethyl)-5-methyl-benzenesulfonyl]-morpholine] | 157.2 °C
Cc1ccc(C=C2c3ccccc3CCc3ccccc32)c(S(=O)(=O)NCC(F)(F)F)c1 [Example 23, 2-(10,11-Dihydro-dibenzo[a,d]cyclohepten-5-ylidenemethyl)-5-methyl-N-(2,2,2-trifluoro-ethyl)-benzenesulfonamide] | 100.7 °C
NS(=O)(=O)c1cccc(C=C2c3ccccc3CCc3ccccc32)c1 [Example 24, 3-(10,11-Dihydro-dibenzo[a,d]cyclohepten-5-ylidenemethyl)-benzenesulfonamide] | 204 °C
CN(C)S(=O)(=O)c1cccc(C=C2c3ccccc3CCc3ccccc32)c1 [Example 25, 3-(10,11-Dihydro-dibenzo[a,d]cyclohepten-5-ylidenemethyl)-N,N-dimethyl-benzenesulfonamide] | 167.3 °C
Brc1cccc(C=C2c3ccccc3CCc3ccccc32)c1 [Example 28, 5-(3-Bromo-benzylidene)-10,11-dihydro-5H-dibenzo-[a,d]cycloheptene] | 104.7 °C
Brc1ccccc1C=C1c2ccccc2CCc2ccccc21 [Example 29, 5-(2-Bromo-benzylidene)-10,11-dihydro-5H-dibenzo-[a,d]cycloheptene] | 122.7 °C
COc1ccc(C=C2c3ccccc3CCc3ccccc32)cc1 [Example 33, 5-(4-Methoxy-benzylidene)-10,11-dihydro-5H-dibenzo-[a,d]cycloheptene] | 116.8 °C
